Laboratory results as given in article PMC7413254 (Nature Communications, 2020).
Where two headings read alike, the source gives them in different places.

Columns and labels:
[1] = molecular target: T1, PfCRT^3D7 (Plasmodium falciparum, UniProt Q8IBZ9); assay: cell-based; type: cell-based; settings: PfCRT3D7 oocytes, total [3H]CQ transport, normalised to the oocyte type control
Method in brief: (§1)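 ND96, pH 5.5, 1.5 h, 27.5 °C; uptake direction acidic outside → oocyte cytosol, mimicking efflux from digestive vacuole. Ice-cold wash stop, 10% SDS lysis, scintillation counting. Ten oocytes/treatment, ≥4 independent experiments.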

[2] = test system: non-expressing oocytes; type: cell-based, Xenopus laevis; settings: non-expressing oocytes, total [3H]CQ transport, normalised to the oocyte type control
Method in brief: (§2)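 Oocytes (ten per treatment, ≥4 independent frogs/days) were preloaded by injecting VF-6 in 25 nL ND96 at pH 5.0, 5.5, 6.0 or 7.0, or Na^+-free choline buffer, then uptake run 1.5 h, 27.5 °C, ND96 pH 5.5 by default. Internal concentrations assumed ~400 nL oocyte volume.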

[3] = molecular target: T2, PfCRT^Ecu1110 (Plasmodium falciparum, UniProt Q9N623, A220S/I356L/K76T/N326D); assay: [3H]CQ uptake into Xenopus oocytes, cis-inhibition by unlabelled solute; type: cell-based; settings: for Uptake of [3H]CQ (% PfCRTEcu1110 control), cis-inhibition / PfCRT-mediated [3H]CQ transport, cis-inhibition (% PfCRTEcu1110 control): PfCRTEcu1110 oocytes; for Uptake of [3H]CQ (% PfCRTEcu1110 control), cis-inhibition: total [3H]CQ transport, normalised to the oocyte type control; for PfCRT-mediated [3H]CQ transport, cis-inhibition (% PfCRTEcu1110 control): background [3H]CQ accumulation subtracted, normalised to oocyte type control; for [3H]CQ transport (% PfCRTEcu1110 control), cis-inhibition, PfCRTEcu1110: PfCRT-mediated component (background subtracted), sheet title says normalised to PfCRTDd2 control, mean ± SEM, SEM
Method in brief: as §1

[4] = molecular target: T3, PfCRT^Dd2 (Plasmodium falciparum, UniProt Q9N623, A220S/I356T/K76T/M74I/N326S/N75E/Q271E/R371I); assay: as above; type: cell-based; settings: PfCRTDd2 oocytes, background [3H]CQ accumulation subtracted, normalised to oocyte type control
Method in brief: as §1

[5] = molecular target: T2, PfCRT^Ecu1110; assay: cell-based; type: cell-based; settings: for Uptake of [3H]CQ (% PfCRTEcu1110 control), trans-stimulation / PfCRT-mediated [3H]CQ transport, trans-stimulation (% PfCRTEcu1110 control): PfCRTEcu1110 oocytes; for Uptake of [3H]CQ (% PfCRTEcu1110 control), trans-stimulation: total [3H]CQ transport, normalised to the oocyte type control; for PfCRT-mediated [3H]CQ transport, trans-stimulation (% PfCRTEcu1110 control): normalised to oocyte type control; for [3H]CQ transport (% PfCRTDd2 control), trans-stimulation, PfCRTEcu1110: PfCRT-mediated component (background subtracted), sheet title says normalised to PfCRTDd2 control, mean ± SEM, SEM
Method in brief: as §2

[6] = molecular target: T1, PfCRT^3D7; assay: cell-based; type: cell-based; settings: PfCRT3D7 oocytes; for Uptake of [3H]CQ (% PfCRT3D7 control), trans-stimulation: total [3H]CQ transport, normalised to the oocyte type control; for PfCRT-mediated [3H]CQ transport, trans-stimulation (% PfCRT3D7 control): normalised to oocyte type control
Method in brief: as §2

[7] = molecular target: T4, PfNT1 (Plasmodium falciparum, UniProt Q8IDM6); assay: cell-based; type: cell-based; settings: PfNT1 oocytes, total [3H]CQ transport, normalised to the oocyte type control
T4 construct: expressed in transfected cells; host or cells: Xenopus laevis oocytes (stage V-VI), cRNA-injected
Method in brief: as §2

[8] = molecular target: T3, PfCRT^Dd2; assay: cell-based; type: cell-based; settings: for Uptake of [3H]CQ (% PfCRTDd2 control), trans-stimulation / PfCRT-mediated [3H]CQ transport, trans-stimulation (% PfCRTDd2 control): PfCRTDd2 oocytes; for Uptake of [3H]CQ (% PfCRTDd2 control), trans-stimulation: total [3H]CQ transport, normalised to the oocyte type control; for PfCRT-mediated [3H]CQ transport, trans-stimulation (% PfCRTDd2 control): normalised to oocyte type control; for [3H]CQ transport (% PfCRTDd2 control), trans-stimulation, PfCRTDd2: PfCRT-mediated component (background subtracted), mean ± SEM, SEM
Method in brief: as §2

[9] = test system: non-expressing oocytes; assay: cells; type: cell-based, Xenopus laevis; settings: non-expressing oocytes, total [3H]CQ transport, normalised to the oocyte type control
Method in brief: as §1

[10] = [test solute]i = 45 mM (30 mM for some solutes due to solubility)
[11] = [test solute]i = 5 mM (intracellular)
[12] = [test solute]i = 45 mM (intracellular; 30 mM for some solutes due to solubility)
[13] = [test solute]i = 5 mM (injected)

T2 sequence (Q9N623 whole entry A220S/I356L/K76T/N326D): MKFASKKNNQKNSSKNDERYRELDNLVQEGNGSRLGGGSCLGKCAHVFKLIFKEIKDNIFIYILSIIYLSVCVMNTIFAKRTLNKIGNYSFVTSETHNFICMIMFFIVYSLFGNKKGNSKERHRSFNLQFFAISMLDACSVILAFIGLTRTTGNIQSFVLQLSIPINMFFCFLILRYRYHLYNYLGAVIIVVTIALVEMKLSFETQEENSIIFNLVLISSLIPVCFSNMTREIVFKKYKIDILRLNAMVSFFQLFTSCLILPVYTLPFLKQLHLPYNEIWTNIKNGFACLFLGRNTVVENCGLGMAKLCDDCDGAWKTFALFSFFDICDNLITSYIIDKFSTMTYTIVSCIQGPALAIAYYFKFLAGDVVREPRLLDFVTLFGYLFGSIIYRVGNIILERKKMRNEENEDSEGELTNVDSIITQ
T1 sequence (Q8IBZ9 59-398): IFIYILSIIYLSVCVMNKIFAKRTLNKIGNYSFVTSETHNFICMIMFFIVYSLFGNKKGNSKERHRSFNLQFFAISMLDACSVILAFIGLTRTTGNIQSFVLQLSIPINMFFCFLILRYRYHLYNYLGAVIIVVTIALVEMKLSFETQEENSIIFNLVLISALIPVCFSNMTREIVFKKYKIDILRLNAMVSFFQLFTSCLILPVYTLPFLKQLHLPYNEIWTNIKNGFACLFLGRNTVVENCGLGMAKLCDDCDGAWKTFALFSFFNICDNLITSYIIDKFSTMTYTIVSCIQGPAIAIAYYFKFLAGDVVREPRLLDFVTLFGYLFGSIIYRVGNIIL
T3 sequence (Q9N623 whole entry A220S/I356T/K76T/M74I/N326S/N75E/Q271E/R371I): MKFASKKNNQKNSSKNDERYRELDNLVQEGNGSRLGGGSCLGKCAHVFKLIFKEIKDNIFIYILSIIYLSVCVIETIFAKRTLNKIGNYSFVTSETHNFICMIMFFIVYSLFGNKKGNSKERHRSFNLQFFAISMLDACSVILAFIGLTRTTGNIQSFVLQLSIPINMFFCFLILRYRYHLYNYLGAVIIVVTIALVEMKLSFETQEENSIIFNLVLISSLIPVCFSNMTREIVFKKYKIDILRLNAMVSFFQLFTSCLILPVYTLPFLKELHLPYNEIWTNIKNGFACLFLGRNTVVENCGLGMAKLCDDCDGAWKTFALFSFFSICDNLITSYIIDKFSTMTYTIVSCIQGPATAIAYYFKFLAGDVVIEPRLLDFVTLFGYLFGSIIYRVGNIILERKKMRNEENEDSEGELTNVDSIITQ
T4 sequence (Q8IDM6 whole entry): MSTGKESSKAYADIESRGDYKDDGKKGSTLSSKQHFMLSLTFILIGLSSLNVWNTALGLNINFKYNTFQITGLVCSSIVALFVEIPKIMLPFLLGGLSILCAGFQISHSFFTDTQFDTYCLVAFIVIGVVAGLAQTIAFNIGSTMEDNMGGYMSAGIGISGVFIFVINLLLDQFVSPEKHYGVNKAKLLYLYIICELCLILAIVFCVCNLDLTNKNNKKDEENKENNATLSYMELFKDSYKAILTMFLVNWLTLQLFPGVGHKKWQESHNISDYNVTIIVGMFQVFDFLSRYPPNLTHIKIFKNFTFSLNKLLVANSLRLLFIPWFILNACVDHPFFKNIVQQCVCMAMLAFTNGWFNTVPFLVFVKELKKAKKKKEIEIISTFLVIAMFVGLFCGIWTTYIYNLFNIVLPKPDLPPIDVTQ

PNAL [PL-4, host-derived peptide]
Uptake of [3H]CQ (% PfCRT3D7 control), cis-inhibition ([1]; [test solute] = 0.5 mM): 99 ± 5.3 % PfCRT3D7 control
Uptake of [3H]CQ (% PfCRT3D7 control), cis-inhibition ([1]; [test solute] = 1 mM): 98 ± 5.7 % PfCRT3D7 control
Uptake of [3H]CQ (% PfCRT3D7 control), cis-inhibition ([1]; [test solute] = 2 mM): 101 ± 6.3 % PfCRT3D7 control
Uptake of [3H]CQ (% non-expressing oocyte control), trans-stimulation ([2]; [test solute]i = 5 mM): 100 ± 3.8 % non-expressing oocyte control
Uptake of [3H]CQ (% non-expressing oocyte control), trans-stimulation [2, 10]: 99 ± 3.7 % non-expressing oocyte control
Uptake of [3H]CQ (% PfCRTEcu1110 control), cis-inhibition ([3]; [test solute] = 0.5 mM): 66 ± 2.9 % PfCRTEcu1110 control
Uptake of [3H]CQ (% PfCRTEcu1110 control), cis-inhibition ([3]; [test solute] = 1 mM): 57 ± 2.7 % PfCRTEcu1110 control
Uptake of [3H]CQ (% PfCRTEcu1110 control), cis-inhibition ([3]; [test solute] = 2 mM): 45 ± 2.4 % PfCRTEcu1110 control
PfCRT-mediated [3H]CQ transport, cis-inhibition (% PfCRTEcu1110 control) ([3]; [test solute] = 0.5 mM): 58 ± 0.5 % PfCRTEcu1110 control
PfCRT-mediated [3H]CQ transport, cis-inhibition (% PfCRTEcu1110 control) ([3]; [test solute] = 1 mM): 52 ± 2.6 % PfCRTEcu1110 control
PfCRT-mediated [3H]CQ transport, cis-inhibition (% PfCRTEcu1110 control) ([3]; [test solute] = 2 mM): 39 ± 2.1 % PfCRTEcu1110 control
[3H]CQ transport (% PfCRTEcu1110 control), cis-inhibition, PfCRTEcu1110 ([3]; [test solute] = 0.5 mM): 18 ± 0.2 % PfCRTEcu1110 control
[3H]CQ transport (% PfCRTEcu1110 control), cis-inhibition, PfCRTEcu1110 ([3]; [test solute] = 1 mM): 16 ± 0.1 % PfCRTEcu1110 control
[3H]CQ transport (% PfCRTEcu1110 control), cis-inhibition, PfCRTEcu1110 ([3]; [test solute] = 2 mM): 12 ± 0.3 % PfCRTEcu1110 control
PfCRT-mediated [3H]CQ transport, cis-inhibition (% PfCRTDd2 control) ([4]; [test solute] = 0.5 mM): 68 ± 2.6 % PfCRTDd2 control
PfCRT-mediated [3H]CQ transport, cis-inhibition (% PfCRTDd2 control) ([4]; [test solute] = 1 mM): 55 ± 4.1 % PfCRTDd2 control
PfCRT-mediated [3H]CQ transport, cis-inhibition (% PfCRTDd2 control) ([4]; [test solute] = 2 mM): 39 ± 1.8 % PfCRTDd2 control
Uptake of [3H]CQ (% PfCRTEcu1110 control), trans-stimulation ([5]; [test solute]i = 5 mM): 99 ± 3.3 % PfCRTEcu1110 control
Uptake of [3H]CQ (% PfCRTEcu1110 control), trans-stimulation [5, 10]: 100 ± 2.2 % PfCRTEcu1110 control
PfCRT-mediated [3H]CQ transport, trans-stimulation (% PfCRTEcu1110 control) [5, 11]: 97 ± 4.9 % PfCRTEcu1110 control
PfCRT-mediated [3H]CQ transport, trans-stimulation (% PfCRTEcu1110 control) [5, 12]: 98 ± 3.0 % PfCRTEcu1110 control
[3H]CQ transport (% PfCRTDd2 control), trans-stimulation, PfCRTEcu1110 [5, 13]: 29 ± 1.7 % PfCRTEcu1110 control
[3H]CQ transport (% PfCRTDd2 control), trans-stimulation, PfCRTEcu1110 [5, 10]: 30 ± 1.4 % PfCRTEcu1110 control
Uptake of [3H]CQ (% PfCRT3D7 control), trans-stimulation ([6]; [test solute]i = 5 mM): 100 ± 2.2 % PfCRT3D7 control
Uptake of [3H]CQ (% PfCRT3D7 control), trans-stimulation [6, 10]: 101 ± 2.1 % PfCRT3D7 control
PfCRT-mediated [3H]CQ transport, trans-stimulation (% PfCRT3D7 control) [6, 11]: 98 ± 4.3 % PfCRT3D7 control
PfCRT-mediated [3H]CQ transport, trans-stimulation (% PfCRT3D7 control) [6, 12]: 99 ± 3.4 % PfCRT3D7 control
Uptake of [3H]CQ (% PfNT1 control), trans-stimulation ([7]; [test solute]i = 5 mM): 99 ± 3.2 % PfNT1 control
Uptake of [3H]CQ (% PfNT1 control), trans-stimulation [7, 10]: 100 ± 2.4 % PfNT1 control
Uptake of [3H]CQ (% PfCRTDd2 control), trans-stimulation ([8]; [test solute]i = 5 mM): 99 ± 3.4 % PfCRTDd2 control
Uptake of [3H]CQ (% PfCRTDd2 control), trans-stimulation [8, 10]: 97 ± 4.3 % PfCRTDd2 control
PfCRT-mediated [3H]CQ transport, trans-stimulation (% PfCRTDd2 control) [8, 11]: 97 ± 2.1 % PfCRTDd2 control
PfCRT-mediated [3H]CQ transport, trans-stimulation (% PfCRTDd2 control) [8, 12]: 95 ± 3.8 % PfCRTDd2 control
[3H]CQ transport (% PfCRTDd2 control), trans-stimulation, PfCRTDd2 [8, 13]: 97 ± 2.1 % PfCRTDd2 control
[3H]CQ transport (% PfCRTDd2 control), trans-stimulation, PfCRTDd2 [8, 10]: 95 ± 3.8 % PfCRTDd2 control
Uptake of [3H]CQ (% non-expressing oocyte control), cis-inhibition ([9]; [test solute] = 1 mM): 100 ± 4.7 % non-expressing oocyte control
Uptake of [3H]CQ (% non-expressing oocyte control), cis-inhibition ([9]; [test solute] = 2 mM): 99 ± 3.6 % non-expressing oocyte control
